What all share (experiment): microbe, parasite or virus in culture
Common to all, as to assay type: cell-based

The test system of one assay is H3N2 and H1N1 strains. As to conditions: Influenza A virus, MDCK, read-out: relative calculated IC50.
A further assay concerns H3N2 virus. The note with it: Influenza A virus, H3N2, MDCK.
The test system of another assay is H1N1 virus. The note with it: Influenza A virus, H1N1, MDCK.

Drawing on US20220226470A1, “ANTIBODIES AND METHODS FOR TREATMENT OF INFLUENZA A INFECTION” (HUMABS BIOMED SA, priority 2019, published 2022), this text covers IC50 for two compounds.

Turning to `CC(=O)N[C@H]1[C@H]([C@H](O)[C@H](O)CO)OC(C(=O)O)=C[C@@H]1N=C(N)N` [zanamivir, reference compound], in the assay on H3N2 and H1N1 strains, the IC50 is 10.7 to 13.7 nM.

With `CCOC(=O)C1=C[C@@H](OC(CC)CC)[C@H](NC(C)=O)[C@@H](N)C1` [oseltamivir, reference compound], the figures for the IC50 with H3N2 virus and in the assay on H1N1 virus were 7 nM and 9.1 nM, respectively.

The term IC50 denotes the concentration that inhibits the measured activity by half.
